Columns and labels:
Adenosine receptor A2a = Adenosine receptor A2a (Rattus norvegicus, UniProt P30543); assay: Binding affinity against Adenosine A2a receptor from rat striata
[1] = target: Adenosine receptors; A1 & A2a (Rattus norvegicus) (UniProt P25099+P30543); assay: Ratio of Ki for A2A and A1 receptors; assay type: protein assay
Adenosine receptor A1 = target: T1, Adenosine receptor A1 (Rattus norvegicus, UniProt P25099); assay: Binding affinity for rat brain Adenosine A1 receptor
T1 sequence (P25099 whole entry): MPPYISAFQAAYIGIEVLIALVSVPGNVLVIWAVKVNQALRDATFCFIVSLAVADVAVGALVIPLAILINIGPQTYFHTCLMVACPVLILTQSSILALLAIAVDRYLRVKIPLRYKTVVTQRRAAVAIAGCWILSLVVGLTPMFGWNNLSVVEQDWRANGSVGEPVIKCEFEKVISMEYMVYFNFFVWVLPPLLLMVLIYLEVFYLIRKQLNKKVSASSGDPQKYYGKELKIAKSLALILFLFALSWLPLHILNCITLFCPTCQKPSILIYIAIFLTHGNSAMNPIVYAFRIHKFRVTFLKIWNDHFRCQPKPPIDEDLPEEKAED

[2] = target: Adenosine receptor A2a (Rattus norvegicus) (UniProt P30543); assay: Binding affinity against Adenosine A2a receptor from rat striata at a concentration of 10e-3 uM
Chain of Adenosine receptor A2a (Rattus norvegicus) (P30543 whole entry): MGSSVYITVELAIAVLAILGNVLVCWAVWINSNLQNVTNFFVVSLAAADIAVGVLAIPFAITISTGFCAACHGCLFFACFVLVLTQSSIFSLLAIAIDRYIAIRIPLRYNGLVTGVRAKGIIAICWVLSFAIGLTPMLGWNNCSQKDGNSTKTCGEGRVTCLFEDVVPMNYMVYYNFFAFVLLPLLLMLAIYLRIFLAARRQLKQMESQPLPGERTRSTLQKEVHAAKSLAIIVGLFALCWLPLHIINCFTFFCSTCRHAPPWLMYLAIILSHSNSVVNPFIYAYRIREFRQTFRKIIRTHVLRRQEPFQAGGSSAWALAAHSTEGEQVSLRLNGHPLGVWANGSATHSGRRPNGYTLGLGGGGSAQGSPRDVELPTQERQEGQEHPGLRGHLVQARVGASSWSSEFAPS

Chain of Adenosine receptors; A1 & A2a (Rattus norvegicus) (P30543 whole entry, looked up, one chain of several): as the sequence (P30543 whole entry) above
Chain of Adenosine receptor A2a (P30543 whole entry): as above

| Compound | Ki (Adenosine receptor A2a) [µM] | Ratio [1] | Ki (Adenosine receptor A1) [µM] | inhibition [2] [%] |
| --- | --- | --- | --- | --- |
| CCCOC1=Nc2c(cnn2-c2ccccc2)C2=N[C@@H](C)[C@H](c3ccccc3)N12 | 45 | 1.4 | – | – |
| OC[C@@H]1OC(n2cnc3c2N=CN2C[C@H](Cc4ccccc4)N=C32)[C@@H](O)[C@H]1O (some centres undefined) | 57.1 | 19 | 2.99 | – |
| C[C@@H]1N=C2c3ncn(C4O[C@@H](CO)[C@H](O)[C@@H]4O)c3N=CN2[C@H]1c1ccccc1 (some centres undefined) | – | 70 | 11.2 | 45 |
| CCCOC1=Nc2c(ncn2-c2ccccc2)C2=N[C@H](Cc3ccccc3)CN12 | 72 | 22 | – | – |
| OC[C@@H]1OC(n2cnc3c2N=CN2C[C@H](c4ccccc4)N=C32)[C@@H](O)[C@H]1O (some centres undefined) | 189 | 42 | 4.54 | – |
| CCCOC1=Nc2c(ncn2-c2ccccc2)C2=N[C@@H](Cc3ccccc3)CN12 | – | 0.18 | – | – |
| C[C@H]1N=C2c3ncn(C4O[C@@H](CO)[C@H](O)[C@@H]4O)c3N=CN2[C@@H]1c1ccccc1 (some centres undefined) | 55.5 | 4.4 | 12.6 | – |
| CCCOC1=Nc2c(cnn2-c2ccccc2)C2=N[C@H](Cc3ccccc3)CN12 | > 100 | > 100 | – | – |

Now from value to compound:

| Ki (Adenosine receptor A2a) [µM] | Ratio [1] | Ki (Adenosine receptor A1) [µM] | inhibition [2] [%] | Compound |
| --- | --- | --- | --- | --- |
| 13.5 | 6 | 2.23 | – | OC[C@@H]1OC(n2cnc3c2N=CN2C[C@@H](Cc4ccccc4)N=C32)[C@@H](O)[C@H]1O (some centres undefined) |
| 3.3 | 0.35 | – | – | CCCOC1=Nc2c(cnn2-c2ccccc2)C2=N[C@@H](Cc3ccccc3)CN12 |
| 17.5 | 4.6 | 3.82 | – | OC[C@@H]1OC(n2cnc3c2N=CN2C[C@@H](c4ccccc4)N=C32)[C@@H](O)[C@H]1O (some centres undefined) |
| 11 | 1.5 | – | – | CCCOC1=Nc2c(cnn2-c2ccccc2)C2=N[C@H](C)[C@@H](c3ccccc3)N12 |
